From paper PMC10092101 (Chemmedchem, 2022)
One block for each molecule: values may come before it.

Experiments:
[1] = test system: GPR1; conditions: ref [13], [22]; cited from earlier work
[2] = test system: CMKLR1; conditions: ref [13], [22]; cited from earlier work
[3] = test system: CCRL2; conditions: cited from earlier work
[4] = biological target: T1, Nluc‐GPR1‐eYFP (human, UniProt P46091 1-355); test: FRET or BRET
T1 sequence: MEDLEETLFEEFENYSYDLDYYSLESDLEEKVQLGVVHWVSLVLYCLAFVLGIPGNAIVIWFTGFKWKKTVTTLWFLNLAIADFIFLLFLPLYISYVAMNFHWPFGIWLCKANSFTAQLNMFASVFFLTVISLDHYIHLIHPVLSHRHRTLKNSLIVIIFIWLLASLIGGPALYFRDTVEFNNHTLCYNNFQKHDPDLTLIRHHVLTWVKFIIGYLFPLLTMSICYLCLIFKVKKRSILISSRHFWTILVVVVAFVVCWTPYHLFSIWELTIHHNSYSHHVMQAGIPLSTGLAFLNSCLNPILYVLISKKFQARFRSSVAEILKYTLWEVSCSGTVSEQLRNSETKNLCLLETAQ

[5] = biological target: T2, Nluc‐CMKLR1‐eYFP (human, UniProt Q99788-2 1-371); test: FRET or BRET
T2 sequence: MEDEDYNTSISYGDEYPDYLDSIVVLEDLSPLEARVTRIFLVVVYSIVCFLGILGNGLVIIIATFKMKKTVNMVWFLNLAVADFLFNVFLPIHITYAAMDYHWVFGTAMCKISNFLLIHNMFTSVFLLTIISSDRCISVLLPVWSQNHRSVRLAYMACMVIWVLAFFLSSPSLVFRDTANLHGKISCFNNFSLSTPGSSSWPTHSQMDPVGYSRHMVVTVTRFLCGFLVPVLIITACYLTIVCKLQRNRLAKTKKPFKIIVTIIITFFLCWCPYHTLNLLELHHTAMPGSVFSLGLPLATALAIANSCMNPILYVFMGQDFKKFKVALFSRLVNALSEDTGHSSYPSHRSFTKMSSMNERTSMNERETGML

[6] = biological target: T3, CMKLR1 (Homo sapiens, UniProt Q99788); test: IP-One assay; format: cell-based; conditions: [K^141(TAMRA)]ChemS157 vs ChemS157, COS-7 cells
T3 sequence (Q99788 1-371 isoform Q99788-2): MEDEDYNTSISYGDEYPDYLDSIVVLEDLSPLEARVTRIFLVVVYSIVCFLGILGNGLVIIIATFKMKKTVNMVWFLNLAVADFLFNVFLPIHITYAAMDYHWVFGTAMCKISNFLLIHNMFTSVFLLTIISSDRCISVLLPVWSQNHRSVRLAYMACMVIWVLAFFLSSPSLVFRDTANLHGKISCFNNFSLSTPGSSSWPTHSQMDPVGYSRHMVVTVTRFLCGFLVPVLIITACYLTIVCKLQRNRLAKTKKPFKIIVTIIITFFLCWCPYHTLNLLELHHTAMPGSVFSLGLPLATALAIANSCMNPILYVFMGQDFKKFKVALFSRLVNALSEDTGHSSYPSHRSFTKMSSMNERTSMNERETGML

[7] = biological target: T4, Nluc‐GPR1 (Homo sapiens, UniProt P46091); test: NanoBRET saturation binding at Nluc-GPR1; conditions: Nluc-GPR1 vs Nluc-CMKLR1
T4 sequence (P46091 1-355): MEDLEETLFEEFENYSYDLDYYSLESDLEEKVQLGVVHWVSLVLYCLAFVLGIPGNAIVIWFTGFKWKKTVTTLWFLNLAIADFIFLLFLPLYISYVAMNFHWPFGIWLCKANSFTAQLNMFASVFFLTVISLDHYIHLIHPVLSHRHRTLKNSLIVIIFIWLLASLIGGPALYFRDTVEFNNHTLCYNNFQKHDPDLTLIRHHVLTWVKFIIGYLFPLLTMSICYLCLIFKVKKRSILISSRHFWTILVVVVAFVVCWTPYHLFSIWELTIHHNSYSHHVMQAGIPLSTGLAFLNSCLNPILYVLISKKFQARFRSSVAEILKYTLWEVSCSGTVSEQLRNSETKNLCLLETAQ

Molecule: ChemS157: most active chemerin form truncated at position S157, 137 amino acids; full‐length protein by recombinant expression
- binding affinity [1]: high affinity
- binding affinity [2]: high affinity
- binding affinity ([3]; ref [13], [22]): high affinity

Molecule: chemerin: 16 kDa protein expressed in liver, skin, lung or white adipose tissue; adipokine
- cellular response at CCRL2 ([3]; described to bind chemerin, no reference printed directly): leads to no cellular response

Other lines, results leading:

- EC50 [4]: 112 nM
- EC50 [5]: 75.9 nM
B1: [K^141(TAMRA)]ChemS157 (ligand)
chain: ELTEAQRRGLQVALEEFHKHPPVQWAFQETSVESAVDTPFPAGIFVRLEFKLQQTSCRKRDWKKPECKVRPNGRKRKCLACIKLGSEDKVLGRLVHCPIETQVLREAEEHQETQCLRVQRKGEDPHSFYFPGQFAFS
modifications: TAMRA on the side chain of lysine 141

- EC50 fold higher than ChemS157 without the TAMRA label [6]: 2.5 fold
- shift of EC50 between Nluc-CMKLR1 and Nluc-GPR1 [7]: 1.5 fold
B2: [K^141(TAMRA)]ChemS157: TAMRA‐labeled full-length ChemS157, lysine 141 labeled, semi‐synthetic by native chemical ligation (protein)
chain: ELTEAQRRGLQVALEEFHKHPPVQWAFQETSVESAVDTPFPAGIFVRLEFKLQQTSCRKRDWKKPECKVRPNGRKRKCLACIKLGSEDKVLGRLVHCPIETQVLREAEEHQETQCLRVQRKGEDPHSFYFPGQFAFS
modifications: TAMRA on the side chain of lysine 141; left off: [His]10-[…], N-terminal, kept
